Measurements: ChEMBL document CHEMBL1201862, “PubChem BioAssay data set” (2004)
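Assay format: 96-well plates, 48-hour exposure. GI50 is the concentration that inhibits growth by half.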 Calls of active or inactive are those of the source. Rule as the data show it: active = GI50 up to about 1.1 µM and inactive = higher.

What was measured:
Assay in all cases: DTP human tumour cell line panel, 48 h
HL-60 = system: HL-60
NCI-H23 = system: NCI-H23
IGROV-1 = system: IGROV-1
SN12C = system: SN12C
SK-MEL-5 = system: SK-MEL-5
SNB-75 = system: SNB-75
HCC 2998 = system: HCC 2998
M14 = system: M14
Malme-3M = system: Malme-3M
HT-29 = system: HT-29
ACHN = system: ACHN
OVCAR-3 = system: OVCAR-3
KM12 = system: KM12
TK-10 = system: TK-10
NCI-H522 = system: NCI-H522

Measured: GI50

C=CCn1c(=O)c(C(=O)NC(=O)OCC)cn(C2CCCCC2)c1=O
inactive: HL-60 > 100 µM | NCI-H23 > 100 µM | IGROV-1 > 100 µM | SN12C > 100 µM | SK-MEL-5 > 100 µM | SNB-75 > 100 µM | HCC 2998 > 100 µM | M14 > 100 µM | Malme-3M > 100 µM | HT-29 > 100 µM | ACHN > 100 µM | OVCAR-3 > 100 µM | KM12 > 100 µM | TK-10 > 100 µM

[O-][S+]1c2ccccc2N=C(c2cccs2)CC1c1ccccc1O (stereo not drawn)
inactive: HL-60 > 100 µM | NCI-H23 67.9 µM | IGROV-1 16.5 µM | SN12C > 100 µM | SK-MEL-5 > 100 µM | SNB-75 32.4 µM | HCC 2998 96.6 µM | M14 > 100 µM | Malme-3M > 100 µM | NCI-H522 65.2 µM | HT-29 > 100 µM | ACHN > 100 µM | OVCAR-3 > 100 µM | KM12 93.5 µM | TK-10 > 100 µM

O=C(O)OC12CCCCCC1C(=O)C1CCCCC12 (stereo not drawn)
inactive: HL-60 47 µM | NCI-H23 > 100 µM | SN12C > 100 µM | SK-MEL-5 > 100 µM | SNB-75 20.1 µM | M14 > 100 µM | Malme-3M > 100 µM | NCI-H522 65.8 µM | HT-29 > 100 µM | ACHN > 100 µM | KM12 > 100 µM | TK-10 > 100 µM

O=C(CCN1CCCC1)CC(c1ccccc1)c1c(O)c2ccccc2oc1=O (stereo not drawn)
inactive: HL-60 > 100 µM | NCI-H23 > 100 µM | IGROV-1 > 100 µM | SN12C > 100 µM | SK-MEL-5 > 100 µM | SNB-75 > 100 µM | HCC 2998 > 100 µM | M14 > 100 µM | Malme-3M > 100 µM | NCI-H522 > 100 µM | HT-29 > 100 µM | ACHN > 100 µM | OVCAR-3 > 100 µM | KM12 > 100 µM | TK-10 > 100 µM

Cn1c(N)nc(=O)c2c1N(C1OC(CO)C(O)C1O)CN2Cc1ccccc1 (stereo not drawn)
inactive: HL-60 > 100 µM | NCI-H23 > 100 µM | IGROV-1 > 100 µM | SN12C > 100 µM | SK-MEL-5 > 100 µM | SNB-75 > 100 µM | HCC 2998 > 100 µM | M14 > 100 µM | Malme-3M > 100 µM | NCI-H522 > 100 µM | HT-29 > 100 µM | ACHN > 100 µM | OVCAR-3 > 100 µM | KM12 > 100 µM | TK-10 > 100 µM

COc1cccc2c1N[S@](=O)S2
inactive: HL-60 > 100 µM | NCI-H23 > 100 µM | IGROV-1 > 100 µM | SN12C 63.5 µM | SNB-75 81.5 µM | M14 > 100 µM | Malme-3M > 100 µM | NCI-H522 86.1 µM | HT-29 > 100 µM | ACHN > 100 µM | OVCAR-3 > 100 µM | KM12 > 100 µM | TK-10 > 100 µM

O=C1C[C@@H]2[C@@H](CCC23CC3)N1
inactive: HL-60 > 100 µM | NCI-H23 > 100 µM | IGROV-1 > 100 µM | SN12C > 100 µM | SK-MEL-5 > 100 µM | SNB-75 > 100 µM | HCC 2998 > 100 µM | M14 > 100 µM | Malme-3M > 100 µM | NCI-H522 > 100 µM | HT-29 > 100 µM | OVCAR-3 > 100 µM | KM12 > 100 µM | TK-10 > 100 µM

Cc1ccc(C[P+]2(c3ccccc3)CCCCC2)cc1.[O-][Cl+3]([O-])([O-])[O-]
inactive: HL-60 10.8 µM | NCI-H23 24.7 µM | IGROV-1 21.3 µM | SN12C 37.6 µM | SK-MEL-5 10.6 µM | SNB-75 24.4 µM | HCC 2998 21 µM | M14 25.8 µM | Malme-3M 25.5 µM | NCI-H522 16.1 µM | HT-29 21.1 µM | ACHN 81.7 µM | OVCAR-3 10 µM | KM12 28.5 µM | TK-10 51.2 µM

O=C1OC(c2ccccc2)=N/C1=C\c1cccc2ccccc12
inactive: HL-60 > 100 µM | NCI-H23 > 100 µM | IGROV-1 > 100 µM | SN12C > 100 µM | SK-MEL-5 > 100 µM | SNB-75 > 100 µM | HCC 2998 > 100 µM | M14 > 100 µM | Malme-3M > 100 µM | NCI-H522 > 100 µM | HT-29 > 100 µM | ACHN > 100 µM | OVCAR-3 > 100 µM | KM12 > 100 µM | TK-10 > 100 µM

CCCCCCCCCCC(=O)CC(=O)c1c(O)cccc1O
inactive: HL-60 16.3 µM | NCI-H23 26.9 µM | IGROV-1 46.8 µM | SN12C 29.3 µM | SK-MEL-5 28.4 µM | SNB-75 40.3 µM | HCC 2998 27.8 µM | M14 40.2 µM | Malme-3M 35.9 µM | NCI-H522 28.1 µM | HT-29 30.7 µM | ACHN 30 µM | OVCAR-3 24.2 µM | KM12 33 µM | TK-10 46.2 µM

COc1ccc(Cc2c(=O)[nH]nc3ccccc23)cc1
inactive: NCI-H23 61 µM | IGROV-1 > 100 µM | SN12C > 100 µM | SK-MEL-5 35.2 µM | SNB-75 29 µM | HCC 2998 > 100 µM | M14 > 100 µM | Malme-3M > 100 µM | HT-29 > 100 µM | ACHN > 100 µM | OVCAR-3 > 100 µM | KM12 > 100 µM | TK-10 > 100 µM

NC(=O)C1C(=O)Oc2cccnc21 (stereo not drawn)
inactive: NCI-H23 > 100 µM | IGROV-1 > 100 µM | SN12C > 100 µM | SK-MEL-5 > 100 µM | SNB-75 17.8 µM | M14 > 100 µM | Malme-3M > 100 µM | NCI-H522 > 100 µM | HT-29 > 100 µM | ACHN > 100 µM | OVCAR-3 > 100 µM | KM12 > 100 µM | TK-10 > 100 µM

Cc1cc(Cl)ccc1N1C(=O)C(=O)C(c2nc3ccccc3s2)/C(=N\NC(=O)c2ccccc2O)C1=O (stereo not drawn)
inactive: HL-60 > 100 µM | NCI-H23 > 100 µM | IGROV-1 > 100 µM | SN12C > 100 µM | SK-MEL-5 > 100 µM | SNB-75 > 100 µM | HCC 2998 > 100 µM | M14 > 100 µM | Malme-3M > 100 µM | NCI-H522 > 100 µM | HT-29 > 100 µM | ACHN > 100 µM | OVCAR-3 > 100 µM | KM12 > 100 µM | TK-10 > 100 µM

Cc1nc2ccc(N)cc2nc1O
inactive: HL-60 > 100 µM | IGROV-1 > 100 µM | SK-MEL-5 > 100 µM | HCC 2998 > 100 µM | M14 > 100 µM | Malme-3M > 100 µM | ACHN > 100 µM | OVCAR-3 > 100 µM | KM12 > 100 µM | TK-10 > 100 µM

O=C(NCC(O)CNC(=O)C(F)(F)F)C(F)(F)F
inactive: HL-60 > 100 µM | NCI-H23 > 100 µM | IGROV-1 > 100 µM | SN12C > 100 µM | SK-MEL-5 > 100 µM | SNB-75 > 100 µM | HCC 2998 > 100 µM | M14 > 100 µM | Malme-3M > 100 µM | NCI-H522 > 100 µM | HT-29 > 100 µM | OVCAR-3 > 100 µM | KM12 > 100 µM | TK-10 > 100 µM

COC(=O)C1(C)CCc2c(OC)ccc(OC)c2C1=O (stereo not drawn)
inactive: HL-60 > 100 µM | NCI-H23 > 100 µM | IGROV-1 > 100 µM | SN12C > 100 µM | SK-MEL-5 > 100 µM | SNB-75 29.8 µM | HCC 2998 > 100 µM | M14 > 100 µM | Malme-3M > 100 µM | NCI-H522 > 100 µM | ACHN > 100 µM | OVCAR-3 > 100 µM | KM12 > 100 µM | TK-10 > 100 µM

CC(=O)c1sc(-c2nc(C)c(C(=O)/C=C\c3ccc(/C=C\C(=O)c4sc(-c5nc(C)c(C(C)=O)s5)nc4C)cc3)s2)nc1C
inactive: HL-60 > 100 µM | NCI-H23 > 100 µM | IGROV-1 > 100 µM | SN12C > 100 µM | HCC 2998 > 100 µM | M14 > 100 µM | Malme-3M > 100 µM | NCI-H522 > 100 µM | HT-29 > 100 µM | ACHN > 100 µM | OVCAR-3 > 100 µM | KM12 > 100 µM | TK-10 > 100 µM

Cc1ccc(N2C(=O)CS/C2=C(\C#N)c2nc3ccccc3[nH]2)cc1
inactive: HL-60 > 100 µM | NCI-H23 > 100 µM | IGROV-1 > 100 µM | SN12C > 100 µM | SK-MEL-5 > 100 µM | SNB-75 > 100 µM | HCC 2998 > 100 µM | M14 > 100 µM | Malme-3M > 100 µM | NCI-H522 > 100 µM | ACHN > 100 µM | OVCAR-3 > 100 µM | KM12 > 100 µM | TK-10 > 100 µM

COC(=O)C(C(=O)C(=O)Nc1ccc([N+](=O)[O-])cc1[N+](=O)[O-])c1nc2ccc(Cl)cc2nc1O (stereo not drawn)
inactive: HL-60 > 100 µM | NCI-H23 77.8 µM | IGROV-1 > 100 µM | SN12C > 100 µM | SK-MEL-5 99.8 µM | SNB-75 68.2 µM | HCC 2998 > 100 µM | M14 > 100 µM | Malme-3M > 100 µM | HT-29 > 100 µM | ACHN 65 µM | OVCAR-3 66.4 µM | KM12 > 100 µM | TK-10 > 100 µM
